According to patent publication US20110046724A1, “Expansible Biocompatible Coats Comprising a Biologically Active Substance” (Avidal Vascular GMBH, priority 2008, published 2011):

How the values were obtained:
[1] = test system: human endothelial progenitor cells (EPC); experiment: short-term application of paclitaxel to human endothelial progenitor cells; type: cell-based; conditions: effect dose and time dependent
Description: (§1) This effect is dose and time dependent; rising concentrations in paclitaxel and longer application show higher inhibition of cell proliferation and migration.

[2] = test system: smooth muscle cells (SCM); experiment: short-term application of paclitaxel to smooth muscle cells; type: cell-based, human; conditions: effect dose and time dependent
Description: as §1

CC(=O)O[C@H]1C(=O)[C@@]2(C)[C@H]([C@H](OC(=O)c3ccccc3)[C@]3(O)C[C@H](OC(=O)[C@H](O)[C@@H](NC(=O)c4ccccc4)c4ccccc4)C(C)=C1C3(C)C)[C@]1(OC(C)=O)CO[C@@H]1C[C@@H]2O [paclitaxel]
apoptosis, inhibition of cell proliferation and migration [1]: leads to apoptosis and therefore inhibition of cell proliferation and migration | apoptosis, inhibition of cell proliferation and migration [2]: leads to apoptosis and therefore inhibition of cell proliferation and migration
